Laboratory results reported in paper PMC9090141 (Pediatric blood & cancer, 2021).
Entries after “also recorded” stand apart in the source; their conditions may differ. Counter-ions that a name gives are not always drawn. Like-named read-outs stand apart in the source and are kept apart here.

System: pediatric patients with recurrent or refractory solid and CNS tumors
[1] = Dose Level 1, 80 mg/m^2, Part A, 6 evaluable
[2] = Dose Level 2, 100 mg/m^2, Part A, 5 evaluable
[3] = Dose Level 3, 125 mg/m^2, Part A, 4 evaluable
[4] = Dose Level 4, 150 mg/m^2, Part A, 5 evaluable
[5] = Dose Level 4, 150 mg/m^2, Part PK (expansion cohort), 5 evaluable
[6] = cycle 1, All Dose Levels (N=25)
[7] = cycle 1, Dose Level 1 (N=6), 80 mg/m^2
[8] = cycle 1, Dose Level 2 (N=5), 100 mg/m^2
[9] = cycle 1, Dose Level 3 (N=4), 125 mg/m^2
[10] = cycle 1, Dose Level 4 (N=10), 150 mg/m^2
[11] = cycle 1, drug-related, all dose levels, 25 evaluable

## COc1cccc(OCCCN)c1-c1cc(Nc2cnc(C#N)cn2)n[nH]1 [prexasertib, Prexasertib mesylate monohydrate]
22/25 patients
  Grade 4 neutropenia, patients: 88%
[1]
  No. of Patients with Cycle 1 DLTs: 0
  No. of Patients with Later-Cycle DLTs: 0
[2]
  No. of Patients with Cycle 1 DLTs: 0
  No. of Patients with Later-Cycle DLTs: 0
[3]
  No. of Patients with Cycle 1 DLTs: 0
  No. of Patients with Later-Cycle DLTs: 0
[4]
  No. of Patients with Cycle 1 DLTs: 0
  No. of Patients with Later-Cycle DLTs: 0
[5]
  No. of Patients with Cycle 1 DLTs: 0
  No. of Patients with Later-Cycle DLTs: 0
IV days 1 and 15 of 28-day cycle, up to 150 mg/m^2
  maximum tolerated dose (MTD): not defined; also recorded: not reached; also recorded: did not reach
[6]
  Alanine aminotransferase increased, All: 5 (20) No. (%)
  Alanine aminotransferase increased, ≥ Grade 3: 1 (4) No. (%)
  Anemia, All: 19 (76) No. (%)
  Anemia, ≥ Grade 3: 3 (12) No. (%)
  Anorexia, All: 3 (12) No. (%)
  Anorexia, ≥ Grade 3: 0 (0) No. (%)
  Aspartate aminotransferase increased, All: 4 (16) No. (%)
  Aspartate aminotransferase increased, ≥ Grade 3: 0 (0) No. (%)
  Diarrhea, All: 4 (16) No. (%)
  Diarrhea, ≥ Grade 3: 0 (0) No. (%)
  Electrocardiogram QT corrected interval prolonged, All: 9 (36) No. (%)
  Electrocardiogram QT corrected interval prolonged, ≥ Grade 3: 0 (0) No. (%)
  Fatigue, All: 6 (24) No. (%)
  Fatigue, ≥ Grade 3: 0 (0) No. (%)
  Headache, All: 3 (12) No. (%)
  Headache, ≥ Grade 3: 0 (0) No. (%)
  Hypokalemia, All: 5 (20) No. (%)
  Hypokalemia, ≥ Grade 3: 0 (0) No. (%)
  Hypophosphatemia, All: 4 (16) No. (%)
  Hypophosphatemia, ≥ Grade 3: 0 (0) No. (%)
  Infusion-related reaction, All: 3 (12) No. (%)
  Infusion-related reaction, ≥ Grade 3: 0 (0) No. (%)
  Lymphocyte count decreased, All: 12 (48) No. (%)
  Lymphocyte count decreased, ≥ Grade 3: 6 (24) No. (%)
  Myalgia, All: 3 (12) No. (%)
  Myalgia, ≥ Grade 3: 0 (0) No. (%)
  Nausea, All: 5 (20) No. (%)
  Nausea, ≥ Grade 3: 0 (0) No. (%)
  Neutrophil count decreased, All: 25 (100) No. (%)
  Neutrophil count decreased, ≥ Grade 3: 25 (100) No. (%)
  Platelet count decreased, All: 21 (84) No. (%)
  Platelet count decreased, ≥ Grade 3: 6 (24) No. (%)
  Vomiting, All: 6 (24) No. (%)
  Vomiting, ≥ Grade 3: 0 (0) No. (%)
  White blood cell decreased, All: 24 (96) No. (%)
  White blood cell decreased, ≥ Grade 3: 17 (68) No. (%)
[7]
  Alanine aminotransferase increased, All: 2 (33) No. (%)
  Alanine aminotransferase increased, ≥ Grade 3: 0 (0) No. (%)
  Anemia, All: 5 (83) No. (%)
  Anemia, ≥ Grade 3: 0 (0) No. (%)
  Anorexia, All: 2 (33) No. (%)
  Anorexia, ≥ Grade 3: 0 (0) No. (%)
  Aspartate aminotransferase increased, All: 0 (0) No. (%)
  Aspartate aminotransferase increased, ≥ Grade 3: 0 (0) No. (%)
  Diarrhea, All: 2 (33) No. (%)
  Diarrhea, ≥ Grade 3: 0 (0) No. (%)
  Electrocardiogram QT corrected interval prolonged, All: 2 (33) No. (%)
  Electrocardiogram QT corrected interval prolonged, ≥ Grade 3: 0 (0) No. (%)
  Fatigue, All: 0 (0) No. (%)
  Fatigue, ≥ Grade 3: 0 (0) No. (%)
  Headache, All: 0 (0) No. (%)
  Headache, ≥ Grade 3: 0 (0) No. (%)
  Hypokalemia, All: 0 (0) No. (%)
  Hypokalemia, ≥ Grade 3: 0 (0) No. (%)
  Hypophosphatemia, All: 1 (17) No. (%)
  Hypophosphatemia, ≥ Grade 3: 0 (0) No. (%)
  Infusion-related reaction, All: 1 (17) No. (%)
  Infusion-related reaction, ≥ Grade 3: 0 (0) No. (%)
  Lymphocyte count decreased, All: 3 (50) No. (%)
  Lymphocyte count decreased, ≥ Grade 3: 2 (33) No. (%)
  Myalgia, All: 0 (0) No. (%)
  Myalgia, ≥ Grade 3: 0 (0) No. (%)
  Nausea, All: 1 (17) No. (%)
  Nausea, ≥ Grade 3: 0 (0) No. (%)
  Neutrophil count decreased, All: 6 (100) No. (%)
  Neutrophil count decreased, ≥ Grade 3: 6 (100) No. (%)
  Platelet count decreased, All: 4 (67) No. (%)
  Platelet count decreased, ≥ Grade 3: 1 (17) No. (%)
  Vomiting, All: 1 (17) No. (%)
  Vomiting, ≥ Grade 3: 0 (0) No. (%)
  White blood cell decreased, All: 5 (83) No. (%)
  White blood cell decreased, ≥ Grade 3: 4 (67) No. (%)
[8]
  Alanine aminotransferase increased, All: 2 (40) No. (%)
  Alanine aminotransferase increased, ≥ Grade 3: 1 (20) No. (%)
  Anemia, All: 3 (60) No. (%)
  Anemia, ≥ Grade 3: 1 (20) No. (%)
  Anorexia, All: 0 (0) No. (%)
  Anorexia, ≥ Grade 3: 0 (0) No. (%)
  Aspartate aminotransferase increased, All: 3 (60) No. (%)
  Aspartate aminotransferase increased, ≥ Grade 3: 0 (0) No. (%)
  Diarrhea, All: 1 (20) No. (%)
  Diarrhea, ≥ Grade 3: 0 (0) No. (%)
  Electrocardiogram QT corrected interval prolonged, All: 1 (20) No. (%)
  Electrocardiogram QT corrected interval prolonged, ≥ Grade 3: 0 (0) No. (%)
  Fatigue, All: 2 (40) No. (%)
  Fatigue, ≥ Grade 3: 0 (0) No. (%)
  Headache, All: 0 (0) No. (%)
  Headache, ≥ Grade 3: 0 (0) No. (%)
  Hypokalemia, All: 2 (40) No. (%)
  Hypokalemia, ≥ Grade 3: 0 (0) No. (%)
  Hypophosphatemia, All: 0 (0) No. (%)
  Hypophosphatemia, ≥ Grade 3: 0 (0) No. (%)
  Infusion-related reaction, All: 1 (20) No. (%)
  Infusion-related reaction, ≥ Grade 3: 0 (0) No. (%)
  Lymphocyte count decreased, All: 2 (40) No. (%)
  Lymphocyte count decreased, ≥ Grade 3: 0 (0) No. (%)
  Myalgia, All: 1 (20) No. (%)
  Myalgia, ≥ Grade 3: 0 (0) No. (%)
  Nausea, All: 1 (20) No. (%)
  Nausea, ≥ Grade 3: 0 (0) No. (%)
  Neutrophil count decreased, All: 5 (100) No. (%)
  Neutrophil count decreased, ≥ Grade 3: 5 (100) No. (%)
  Platelet count decreased, All: 5 (100) No. (%)
  Platelet count decreased, ≥ Grade 3: 2 (40) No. (%)
  Vomiting, All: 1 (20) No. (%)
  Vomiting, ≥ Grade 3: 0 (0) No. (%)
  White blood cell decreased, All: 5 (100) No. (%)
  White blood cell decreased, ≥ Grade 3: 3 (60) No. (%)
[9]
  Alanine aminotransferase increased, All: 0 (0) No. (%)
  Alanine aminotransferase increased, ≥ Grade 3: 0 (0) No. (%)
  Anemia, All: 3 (75) No. (%)
  Anemia, ≥ Grade 3: 1 (25) No. (%)
  Anorexia, All: 0 (0) No. (%)
  Anorexia, ≥ Grade 3: 0 (0) No. (%)
  Aspartate aminotransferase increased, All: 0 (0) No. (%)
  Aspartate aminotransferase increased, ≥ Grade 3: 0 (0) No. (%)
  Diarrhea, All: 0 (0) No. (%)
  Diarrhea, ≥ Grade 3: 0 (0) No. (%)
  Electrocardiogram QT corrected interval prolonged, All: 2 (50) No. (%)
  Electrocardiogram QT corrected interval prolonged, ≥ Grade 3: 0 (0) No. (%)
  Fatigue, All: 2 (50) No. (%)
  Fatigue, ≥ Grade 3: 0 (0) No. (%)
  Headache, All: 1 (25) No. (%)
  Headache, ≥ Grade 3: 0 (0) No. (%)
  Hypokalemia, All: 1 (25) No. (%)
  Hypokalemia, ≥ Grade 3: 0 (0) No. (%)
  Hypophosphatemia, All: 0 (0) No. (%)
  Hypophosphatemia, ≥ Grade 3: 0 (0) No. (%)
  Infusion-related reaction, All: 0 (0) No. (%)
  Infusion-related reaction, ≥ Grade 3: 0 (0) No. (%)
  Lymphocyte count decreased, All: 2 (50) No. (%)
  Lymphocyte count decreased, ≥ Grade 3: 2 (50) No. (%)
  Myalgia, All: 0 (0) No. (%)
  Myalgia, ≥ Grade 3: 0 (0) No. (%)
  Nausea, All: 0 (0) No. (%)
  Nausea, ≥ Grade 3: 0 (0) No. (%)
  Neutrophil count decreased, All: 4 (100) No. (%)
  Neutrophil count decreased, ≥ Grade 3: 4 (100) No. (%)
  Platelet count decreased, All: 4 (100) No. (%)
  Platelet count decreased, ≥ Grade 3: 2 (50) No. (%)
  Vomiting, All: 0 (0) No. (%)
  Vomiting, ≥ Grade 3: 0 (0) No. (%)
  White blood cell decreased, All: 4 (100) No. (%)
  White blood cell decreased, ≥ Grade 3: 3 (75) No. (%)
[10]
  Alanine aminotransferase increased, All: 1 (10) No. (%)
  Alanine aminotransferase increased, ≥ Grade 3: 0 (0) No. (%)
  Anemia, All: 8 (80) No. (%)
  Anemia, ≥ Grade 3: 1 (10) No. (%)
  Anorexia, All: 1 (10) No. (%)
  Anorexia, ≥ Grade 3: 0 (0) No. (%)
  Aspartate aminotransferase increased, All: 1 (10) No. (%)
  Aspartate aminotransferase increased, ≥ Grade 3: 0 (0) No. (%)
  Diarrhea, All: 1 (10) No. (%)
  Diarrhea, ≥ Grade 3: 0 (0) No. (%)
  Electrocardiogram QT corrected interval prolonged, All: 4 (40) No. (%)
  Electrocardiogram QT corrected interval prolonged, ≥ Grade 3: 0 (0) No. (%)
  Fatigue, All: 2 (20) No. (%)
  Fatigue, ≥ Grade 3: 0 (0) No. (%)
  Headache, All: 2 (20) No. (%)
  Headache, ≥ Grade 3: 0 (0) No. (%)
  Hypokalemia, All: 2 (20) No. (%)
  Hypokalemia, ≥ Grade 3: 0 (0) No. (%)
  Hypophosphatemia, All: 3 (30) No. (%)
  Hypophosphatemia, ≥ Grade 3: 0 (0) No. (%)
  Infusion-related reaction, All: 1 (10) No. (%)
  Infusion-related reaction, ≥ Grade 3: 0 (0) No. (%)
  Lymphocyte count decreased, All: 5 (50) No. (%)
  Lymphocyte count decreased, ≥ Grade 3: 2 (20) No. (%)
  Myalgia, All: 2 (20) No. (%)
  Myalgia, ≥ Grade 3: 0 (0) No. (%)
  Nausea, All: 3 (30) No. (%)
  Nausea, ≥ Grade 3: 0 (0) No. (%)
  Neutrophil count decreased, All: 10 (100) No. (%)
  Neutrophil count decreased, ≥ Grade 3: 10 (100) No. (%)
  Platelet count decreased, All: 8 (80) No. (%)
  Platelet count decreased, ≥ Grade 3: 1 (10) No. (%)
  Vomiting, All: 4 (40) No. (%)
  Vomiting, ≥ Grade 3: 0 (0) No. (%)
  White blood cell decreased, All: 10 (100) No. (%)
  White blood cell decreased, ≥ Grade 3: 7 (70) No. (%)
[11]
  grade 3/4 anemia, patients: 12%
  grade 3/4 leukopenia, patients: 68%
  grade 3/4 lymphopenia, patients: 24%
  grade 3/4 neutropenia, patients: 100%
  grade 3/4 thrombocytopenia, patients: 24%
Cycle 1 or later, all dose levels 80-150 mg/m^2
  dose-limiting toxicities (DLTs): no cycle 1 or later dose-limiting toxicities; also recorded: No DLTs
